Assay results: US7414107B2, “Pharmacologically active peptide conjugates having a reduced tendency towards enzymatic hydrolysis” (priority 1998, dated 2008)
Where a SMILES comes first, the peptide text is derived from it. Where no end group is shown, it is not given here. [ ]: non-standard residue; d: D form. Dap = NC[C@H](N)C(=O)O

Tests used:
leucine aminopeptidase = target: T1, leucine aminopeptidase (Sus scrofa, UniProt P28839); assay: Hydrolysis kinetics in leucine aminopeptidase solution; type: in vitro ADME, porcine; conditions: 50 mM phosphate buffer pH 7.4, 37° C., leucine aminopeptidase 25 U/ml; for half-life: pig
T1 construct: purchased Sigma, UK type III-CP (catalogue number not given); host or cells: porcine kidney
T1 sequence (P28839 1-519): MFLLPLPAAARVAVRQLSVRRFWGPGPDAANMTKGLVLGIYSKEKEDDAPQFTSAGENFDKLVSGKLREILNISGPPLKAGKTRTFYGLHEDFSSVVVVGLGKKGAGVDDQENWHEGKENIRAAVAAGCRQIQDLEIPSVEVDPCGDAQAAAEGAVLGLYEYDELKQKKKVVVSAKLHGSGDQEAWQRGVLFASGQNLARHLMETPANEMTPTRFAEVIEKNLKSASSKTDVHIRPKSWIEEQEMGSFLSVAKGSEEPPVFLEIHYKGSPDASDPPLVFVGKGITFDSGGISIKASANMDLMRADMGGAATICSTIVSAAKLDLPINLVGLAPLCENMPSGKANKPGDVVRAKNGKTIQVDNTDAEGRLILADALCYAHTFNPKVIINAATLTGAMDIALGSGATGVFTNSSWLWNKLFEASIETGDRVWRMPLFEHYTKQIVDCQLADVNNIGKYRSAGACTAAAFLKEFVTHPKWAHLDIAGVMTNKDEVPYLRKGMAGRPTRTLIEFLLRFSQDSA
Summary of the method: (§1)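 Peptide conjugate or native peptide at ~0.1 mg/ml final (10^−5-10^−4M) incubated at 37° C in 50 mM phosphate pH 7.4 with leucine aminopeptidase (25 U/ml) or carboxypeptidase A (1 or 25 U/ml). Timed samples quenched with TFA/acetonitrile and quantified by RP-HPLC at 215 nm. t1/2 = ln2/kobs from first-order log plots.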

carboxypeptidase A = target: T2, carboxypeptidase A (Bos taurus, UniProt P00730); assay: Hydrolysis kinetics in carboxypeptidase A solution; type: in vitro ADME, bovine; conditions: 50 mM phosphate buffer pH 7.4, 37° C., carboxypeptidase A 1 U/ml
T2 construct: purchased Sigma, UK type I (catalogue number not given); host or cells: bovine pancreas
T2 sequence (P00730 111-419): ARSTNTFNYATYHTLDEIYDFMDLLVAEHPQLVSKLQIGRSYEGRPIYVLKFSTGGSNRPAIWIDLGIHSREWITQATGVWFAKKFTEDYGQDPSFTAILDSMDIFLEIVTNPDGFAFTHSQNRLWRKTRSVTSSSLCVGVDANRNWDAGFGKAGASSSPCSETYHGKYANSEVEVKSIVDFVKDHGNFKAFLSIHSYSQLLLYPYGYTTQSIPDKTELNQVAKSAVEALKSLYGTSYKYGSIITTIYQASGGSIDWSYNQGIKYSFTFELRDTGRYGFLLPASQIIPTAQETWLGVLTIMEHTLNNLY
Summary of the method: as §1

vas deferens = conditions: read-out: EC50 value; half maximal inhibition of electrically-induced contraction, mouse vas deferens
Method: (§2) In short: vasa deferentia were isolated from male mice weighing 20-30 g (Mellegaard breeding, DK) and suspended through two electrodes in 10 ml baths at resting tension of 1 g. […] The tissues were stimulated electrically (70 V, 1 ms duration; 0.1 Hz) and contractions were recorded isometrically on a chart recorder. After equilibration of the tissue for at least 20 min, drugs were added in the bath and the maximum effects were measured.
(§3) Prior to addition of the plasma sample, a standard dose-response curve was generated in each preparation in order to express the inhibitory activity as concentration of each test substance. Thus, the calculated concentration is a reflection of inhibitory activity in the vas deferens bioassay preparation.
(§4) Where initial=initial […] contraction force prior to addition of test substance; conc=concentration of test substance; EC50=concentration of test substance that […] produced half maximal inhibition of electrically-induced contraction; background=contraction force during maximal relaxation.

[1] = Stability in mouse plasma at 37° C. (vas deferens bioassay readout)
Description: as §3, §4
All enkephalin analogues were dissolved in Krebs buffer in a concentration of 1 mM. Sixty-six μl of each test substance solution (66 nmol enkephalin analog) was incubated with 600 μl plasma at 37° C. […] Functional activity of each test substance in plasma was expressed as the concentration of the test substance that elicited the same inhibition of electrically-induced contraction in the vas deferens bioassay. T1/2 was calculated by fitting the time-concentration data to the equation: conc(t)=conc(0)·e^(−ln2/T1/2)·t where conc(0)=concentration at t=0.

osteoblast = assay: Osteoblast retraction assay; type: cell-based, mice
Method: Retraction assays were performed with osteoblast prepared from calvaria of 1-day old mice according to published protocols (Miller et al., 1976, Science 192:1340-1343). In brief, osteoblasts were seeded in serum-free minimal essential medium-α (αMEM) at a density of 3000 cells per cm^2 into 96-well tissue culture plates coated with 50 μg/ml of type I collagen in phosphate-buffered saline containing 0.1% bovine serum albumin (PBS). One day after plating, PTH compounds were added to a final concentration of 10 nM and incubation was carried out for 1 h. Cells were then fixed and stained with toluidine blue, and the number of retracted cells was counted by visual inspection.

PTH (1-34)-antibody = conditions: EIAS(h)-6101 from Peninsula Laboratories; cited from earlier work
guinea pig illeum = conditions: agonist, induced contraction, illeum not electrically stimulated
Method: Following application of the compounds the induced contraction was measured.

[2] = Bioavailability in mice: functional activity in serum after p.o. or i.v. dosing (vas deferens bioassay)
Method: Blood samples were centrifuged immediately (3000 g, 4° C.) and serum was isolated and used for activity determination.
as §2

Compound: CC(C)C[C@H](NC(=O)[C@H](Cc1ccccc1)NC(=O)CNC(=O)CNC(=O)[C@@H](N)Cc1ccc(O)cc1)C(=O)N[C@@H](CN)C(=O)N[C@@H](CN)C(=O)N[C@@H](CN)C(=O)N[C@@H](CN)C(=O)N[C@@H](CN)C(=O)N[C@@H](CN)C(=O)O [Leu-Enkephalin-(Dpr)6-OH, H-Tyr-Gly-Gly-Phe-Leu-(Dpr)6-OH] (H-YGGFL[Dap][Dap][Dap][Dap][Dap][Dap]-OH)
- pseudo first-order rate constant for the degradation (leucine aminopeptidase): 0.17 min⁻¹
- half-life (leucine aminopeptidase): 4.2 min
- half-life (carboxypeptidase A): 29 min
- pseudo first-order rate constant for the degradation (carboxypeptidase A): 0.024 min⁻¹
- EC50 (vas deferens): 200 nM
- half-life at 99 µM ([1]; plasma): 19.8 min

Compound: CC[C@H](C)[C@H](NC(=O)[C@H](CCC(=O)O)NC(=O)[C@H](CO)NC(=O)[C@@H](NC(=O)[C@@H](N)CO)C(C)C)C(=O)N[C@@H](CCC(N)=O)C(=O)N[C@@H](CC(C)C)C(=O)N[C@@H](CCSC)C(=O)N[C@@H](Cc1c[nH]cn1)C(=O)N[C@@H](CC(N)=O)C(=O)N[C@@H](CC(C)C)C(=O)NCC(=O)N[C@@H](CCCCN)C(=O)N[C@@H](Cc1c[nH]cn1)C(=O)N[C@@H](CC(C)C)C(=O)N[C@@H](CC(N)=O)C(=O)N[C@@H](CO)C(=O)N[C@@H](CCSC)C(=O)N[C@@H](CCC(=O)O)C(=O)N[C@@H](CCCNC(=N)N)C(=O)N[C@H](C(=O)N[C@@H](CCC(=O)O)C(=O)N[C@@H](Cc1c[nH]c2ccccc12)C(=O)N[C@@H](CC(C)C)C(=O)N[C@@H](CCCNC(=N)N)C(=O)N[C@@H](CCCCN)C(=O)N[C@@H](CCCCN)C(=O)N[C@@H](CC(C)C)C(=O)N[C@@H](CCC(N)=O)C(=O)N[C@@H](CC(=O)O)C(=O)N[C@H](C(=O)N[C@@H](Cc1c[nH]cn1)C(=O)N[C@@H](CC(N)=O)C(=O)N[C@@H](Cc1ccccc1)C(=O)O)C(C)C)C(C)C [PTH(1-34)(Human)-OH, H-Ser-Val-Ser-Glu-Ile-Gln-Leu-Met-His-Asn-Leu-Gly-Lys -His-Leu-Asn-Ser-Met-Glu-Arg-Val-Glu-Trp-Leu-Arg-Lys-Lys-Leu-Gln-Asp-Val-His -Asn-Phe-OH, reference compound]
- pseudo first-order rate constant for the degradation (leucine aminopeptidase): 0.0021 min⁻¹
- half-life (leucine aminopeptidase): 330 min
- half-life (carboxypeptidase A): 0.13 min
- pseudo first-order rate constant for the degradation (carboxypeptidase A): 5.2 min⁻¹
- Retraction assay % Retracted cells (osteoblast; 10 nM, 1 h, mouse calvaria osteoblasts): 58.2%
- activity relative to native, human parathyroid hormone (osteoblast; Osteoblast retraction assay): approximately 89%
- Specificity of the assay (PTH (1-34)-antibody): 100%

Compound: CSCC[C@H](NC(=O)[C@H](CC(C)C)NC(=O)CNC(=O)[C@H](Cc1ccccc1)NC(=O)[C@H](Cc1ccccc1)NC(=O)[C@H](CCC(N)=O)NC(=O)[C@H](CCC(N)=O)NC(=O)[C@@H]1CCCN1C(=O)[C@H](CCCCN)NC(=O)[C@@H]1CCCN1C(=O)[C@@H](N)CCCNC(=N)N)C(N)=O [Substance P-NH2, H-Arg-Pro-Lys-Pro-Gln-Gln-Phe-Phe-Gly-Leu-Met-NH2, reference compound]
- pseudo first-order rate constant for the degradation (leucine aminopeptidase): 0.045 min⁻¹
- half-life (leucine aminopeptidase): 16 min
- half-life (carboxypeptidase A): 35 min
- pseudo first-order rate constant for the degradation (carboxypeptidase A): 0.02 min⁻¹
- EC50 (guinea pig illeum): 40 nM

Compound: H-KKKKKKRPKPQQFFGLM-NH2 [(Lys)6-Substance P-NH2, H-(Lys)6 Arg-Pro-Lys-Pro-Gln-Gln-Phe-Phe-Gly-Leu -Met-NH2]
- pseudo first-order rate constant for the degradation (leucine aminopeptidase): 0.002 min⁻¹
- half-life (leucine aminopeptidase): 347 min
- EC50 (guinea pig illeum): 5 nM

Compound: H-YGGFLKEEEEK-OH [Leu-Enkephalin-(Lys-Glu4-Lys)-OH, H-Tyr-Gly-Gly-Phe-Leu-Lys-Glu-Glu-Glu-Glu-Lys--OH]
- pseudo first-order rate constant for the degradation (leucine aminopeptidase): 0.065 min⁻¹
- half-life (leucine aminopeptidase): 11 min
- half-life (carboxypeptidase A): 1160 min
- pseudo first-order rate constant for the degradation (carboxypeptidase A): 0.0006 min⁻¹
- EC50 (vas deferens): 357 nM
- half-life at 99 µM ([1]; mouse plasma): 84.5 min

Compound: YGGFLEEEEEE [Leu-Enkephalin-(Glu)6-OH, H-Tyr-Gly-Gly-Phe-Leu-Glu6-OH]
- EC50 (vas deferens): 140 nM
- solubility (Solubility (remark)): very low solubility

Compound: YGGFLKKKKKK [Leu-Enkephalin-(Lys)6-OH, H-Tyr-Gly-Gly-Phe-Leu-Lys6-OH]
- pseudo first-order rate constant for the degradation (leucine aminopeptidase): 0.0097 min⁻¹
- half-life (leucine aminopeptidase): 72 min
- pseudo first-order rate constant for the degradation (carboxypeptidase A): 0.0007 min⁻¹
- half-life (carboxypeptidase A; cattle, carboxypeptidase A solution (1 U/ml) in phosphate buffer): 990 min
- Functional activity in serum ([2]; 50 mg/kg i.v., 5 min): 15.9 ± 2.4 µM
- Functional activity in serum ([2]; 50 mg/kg i.v., 15 min): 8.5 ± 1.2 µM
- Functional activity in serum ([2]; 50 mg/kg i.v., 30 min): 6 ± 0.95 µM
- Functional activity in serum ([2]; 50 mg/kg i.v., 60 min): 1.6 ± 0.34 µM
- Functional activity in serum ([2]; 50 mg/kg i.v., 180 min): 0.44 ± 0.11 µM
- Functional activity in serum ([2]; 50 mg/kg i.v., 240 min): 2.5 ± 0.32 µM
- Functional activity in serum ([2]; 50 mg/kg i.v., 370 min): 31.2 ± 8.62 µM
- Functional activity in serum ([2]; 50 mg/kg i.v., 720 min): <Detection Limit
- Functional activity in serum ([2]; 50 mg/kg i.v., 1080 min): <Detection Limit
- Functional activity in serum ([2]; 50 mg/kg i.v., 1440 min): <Detection Limit
- time at which activity in serum reached a maximum ([2]; 50 mg/kg p.o.): 90 to 240 min
- Functional activity in serum ([2]; 50 mg/kg p.o., 0 min): 0 µM
- Functional activity in serum ([2]; 50 mg/kg p.o., 15 min): <Detection Limit
- Functional activity in serum ([2]; 50 mg/kg p.o., 30 min): 3 ± 0.8 µM
- Functional activity in serum ([2]; 50 mg/kg p.o., 60 min): 6 ± 1.3 µM
- Functional activity in serum ([2]; 50 mg/kg p.o., 90 min): 10.9 ± 3.8 µM
- Functional activity in serum ([2]; 50 mg/kg p.o., 240 min): 10.7 ± 0.23 µM
- Functional activity in serum ([2]; 50 mg/kg p.o., 480 min): 5 ± 0.58 µM
- Functional activity in serum ([2]; 50 mg/kg p.o., 960 min): 2.8 ± 0.78 µM
- Functional activity in serum ([2]; 50 mg/kg p.o., 1380 min): <Detection Limit
- EC50 (vas deferens): 160 nM
- half-life at 99 µM ([1]; plasma): 18.7 min
